Laboratory results: PubChem BioAssay (NCI)
Where “and” joins values, the source holds several entries; their conditions need not be identical. Identical values can stand only once.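 All cell lines were grown in 96-well plates and treated with compound for 48 hours. GI50: concentration for 50% inhibition of growth. TGI denotes the concentration required for complete inhibition of growth.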

Tests used:
Experiment in all cases: DTP human tumour cell line panel, 48 h
HCT-116 colon = tested on: HCT-116 colon
KM12 colon = tested on: KM12 colon
CAKI-1 renal = tested on: CAKI-1 renal
LOX IMVI melanoma = tested on: LOX IMVI melanoma
K-562 leukemia = tested on: K-562 leukemia
NCI-H23 lung = tested on: NCI-H23 lung
MOLT-4 leukemia = tested on: MOLT-4 leukemia
HL-60(TB) leukemia = tested on: HL-60(TB) leukemia
MDA-MB-435 = tested on: MDA-MB-435
RPMI-8226 leukemia = tested on: RPMI-8226 leukemia

Row | Structure (SMILES) | TGI (HCT-116 colon) | TGI (KM12 colon) | TGI (CAKI-1 renal) [µM] | TGI (LOX IMVI melanoma) | TGI (K-562 leukemia) [µM] | TGI (NCI-H23 lung) [µM] | TGI (MOLT-4 leukemia) [µM] | TGI (HL-60(TB) leukemia) [µM] | TGI (MDA-MB-435) [µM] | TGI (RPMI-8226 leukemia) [µM] | GI50 (HCT-116 colon) [µM] | GI50 (KM12 colon) | GI50 (CAKI-1 renal) | GI50 (RPMI-8226 leukemia) | GI50 (NCI-H23 lung) | GI50 (MOLT-4 leukemia) | GI50 (HL-60(TB) leukemia) | GI50 (MDA-MB-435) | GI50 (LOX IMVI melanoma) [µM] | GI50 (K-562 leukemia) [µM]
1 | O=[N+]([O-])c1ccc(Cc2nc3cc4ccccc4cc3[nH]2)cc1C(F)(F)F | 26.8 µM | 30.3 µM | 26.7 | > 100 µM | 30.3 | 25.7 | 87.7 | > 100 | 21 |  |  |  |  |  |  |  |  |  |  | 
2 | COC1=CC(=O)c2c(c(COC(C)=O)cn2C)C1=O | 0.216 µM | 0.763 µM | 0.22 | 0.431 µM | 0.707 | 0.417 | 0.653 | 0.694 | 0.28 | 0.584 |  |  |  |  |  |  |  |  |  | 
3 | CC(=O)Nc1c2sscc-2n(C)c1=O | 1.96 µM | 2.6 µM | 3.36 | 3.39 µM | 5.71 | 2.28 | 0.275 | 5.9 | 2.51 | 4.48 |  |  |  |  |  |  |  |  |  | 
4 | CN(CC(=O)O)CC(=O)O | > 100 µM | > 100 µM | > 100 | > 100 µM | > 100 | > 100 | > 100 | > 100 | > 100 | > 100 |  |  |  |  |  |  |  |  |  | 
5 | O=C(CC(Cc1ccccc1)c1ccc(Oc2ccccc2)cc1)Nc1cccc(Cl)c1 (stereo not given) | > 100 µM | > 100 µM | > 100 | 49.2 µM | > 100 | > 100 | 39.3 | 10.2 | > 100 | 17.3 |  |  |  |  |  |  |  |  |  | 
6 | N#CC(NNC(=O)c1c(Cl)c(Cl)c(Cl)c(Cl)c1-c1nc2ccc(C(=O)c3ccccc3)cc2[nH]1)c1ccccc1 (stereo not given) | > 100 µM | > 100 µM | > 100 | 87.9 µM | 19.3 | 90.3 | 27.7 | 45.6 | 15.3 | 24.9 |  |  |  |  |  |  |  |  |  | 
7 | COc1ccc(N2C(=O)C(=O)N(C)C2=O)c2ccccc12 | > 10 µM | > 10 µM | > 10 | > 10 µM | > 10 | > 10 | > 10 | > 10 | > 10 | > 10 |  |  |  |  |  |  |  |  |  | 
8 | C1=Nc2ccccc2Cn2nncc21 | > 100 µM | > 100 µM | > 100 | > 100 µM | > 100 | > 100 | > 100 | > 100 |  | > 100 |  |  |  |  |  |  |  |  |  | 
9 | O=c1ccc2c(Cl)cccc2o1 | > 100 µM | > 100 µM | > 100 | > 100 µM | > 100 | > 100 | > 100 | > 100 | > 100 | > 100 |  |  |  |  |  |  |  |  |  | 
10 | O=S(=O)(Nc1nccs1)c1ccc([As](=O)(O)O)cc1 | > 100 µM | > 100 µM | > 100 | > 100 µM | > 100 | > 100 | > 100 | > 100 | > 100 | > 100 |  |  |  |  |  |  |  |  |  | 
11 | COc1cc(/C=N/N=C(\N)NO)ccc1O | > 100 µM | > 100 µM | > 100 | > 100 µM | > 100 | > 100 | > 100 |  |  | > 100 |  |  |  |  |  |  |  |  |  | 
12 | O=[N+]([O-])c1ccc(NNN=Nc2ccc(-c3nc4ccccc4[nH]3)cc2)c([N+](=O)[O-])c1 | > 100 µM | > 100 µM | > 100 | > 100 µM | 79.7 | > 100 | > 100 | > 100 | > 100 |  |  |  |  |  |  |  |  |  |  | 
13 | CCN(CC)CCCC(C)Nc1c2ccc(Cl)cc2nc2cc(Cl)ccc12 (stereo not given) | 7.56 µM | 9.29 µM | 10.7 | 6.94 µM | 5.05 | 20.8 | 5.31 | 4.6 |  | 5.11 |  |  |  |  |  |  |  |  |  | 
14 | OCC(O)C(O)C(O)C(O)CNCCO/N=C1/C(c2c(O)[nH]c3ccccc23)=Nc2ccccc21 (stereo not given) | 38.2 µM | > 50 µM | > 50 | 17.3 µM | 44.4 | 23.7 | 36.3 | 37.9 | 20.4 | > 50 |  |  |  |  |  |  |  |  |  | 
15 | CC(C(=O)NCCNC(=O)CCCC(=O)N(C)O)C(=O)NCCNC(=O)CCCC(=O)N(C)O |  | > 100 µM | > 100 | > 100 µM | > 100 | > 100 | > 100 | > 100 | > 100 | > 100 |  |  |  |  |  |  |  |  |  | 
16 | CSC1=C(SC)C(=O)c2cn(C)c(=O)cc2C1=O | 3.33 µM | 48.3 µM |  | 3.91 µM | 0.424 | 11.1 | 3.52 |  | 3.35 | > 100 |  |  |  |  |  |  |  |  |  | 
17 | CC[C@@]1(O)C(=O)OCc2c1cc1n(c2=O)Cc2cc3c(CN(C)C)c(O)ccc3nc2-1 | 18.9 µM and 11.7 µM | 7.58 µM and 15.1 µM and 12.2 µM |  | 362 nM [middle of 4 runs] |  |  |  |  |  |  | 0.0681 | 0.15 µM and 0.413 µM and 0.35 µM | < 0.01 µM and 0.00506 µM | 0.163 µM and 0.0818 µM and 0.435 µM | 0.0088 µM and 0.0362 µM | < 0.01 µM and 0.00317 µM | 0.0103 µM and 0.00542 µM | 0.0713 µM and 0.108 µM and 0.0243 µM |  | 
18 | Clc1ccc(OCc2nnc3sc(SSc4nn5c(COc6ccc(Cl)cc6)nnc5s4)nn23)cc1 | > 100 µM | > 100 µM | > 100 | > 100 µM | > 100 | > 100 |  | > 100 | > 100 | > 100 |  |  | 77.3 µM |  |  |  |  |  |  | 
19 | Fc1cc(C2=Nn3c(CNc4ccc(Cl)cc4)nnc3S/C2=C\c2ccc(-c3ccc(Cl)cc3)o2)c(Cl)cc1Cl | > 100 µM | > 100 µM | 72.4 | > 100 µM | > 100 | > 100 | > 100 | > 100 | > 100 | 79.1 |  |  |  |  |  |  |  |  |  | 
20 | CC1(CO)C(O)CCC2(C)C1C(O)CC1CC3CC12CCC3(O)CO (stereo not given) | > 225 µM | > 225 µM | > 225 | > 225 µM | > 225 | > 225 | > 141 | > 225 |  | > 196 |  |  |  |  |  |  |  |  |  | 
21 | OC(c1ccccc1)C1CC2C=CC1C2 (stereo not given) | > 100 µM | > 100 µM | > 100 | > 100 µM | > 100 | > 100 | > 100 | > 100 |  | > 100 |  |  |  |  |  |  |  |  |  | 
22 | CNCCCn1c2c(c3ccc(Cl)cc3c1=O)C(=O)c1cc(OC)cnc1-2 |  | 2.43 µM | 1.78 |  |  |  |  | 2.4 | 2.32 |  |  | 1.1 µM | 0.0631 µM |  |  |  | 0.601 µM | 1.07 µM |  | 
23 | Fc1ccc(Nc2ncc(-c3cc(F)c(Cl)cc3Cl)s2)cc1Cl | 7.2 µM | 13.3 µM | 22 | 96 µM | 15.5 | 28.1 | 18.6 | 36.2 | 32.5 | 25.1 | 2.82 | 2.69 µM | 8.2 µM | 9.38 µM | 14.1 µM | 5.46 µM | 18.1 µM | 15.4 µM | 9.08 | 3.46
24 | COc1ccc(/C=C2\C[C@H]3[C@@H]4CC=C5C[C@@H](OC(C)=O)CC[C@]5(C)[C@H]4CC[C@]3(C)C2=O)cc1OC | > 100 µM | > 100 µM | > 100 | > 100 µM | > 100 | > 100 | > 100 | 78.9 | > 100 | > 100 |  |  |  |  |  |  |  |  |  | 
25 | Clc1ccc(C2CC(c3cccc(Nc4ccncc4)c3)=NN2c2ccccc2)cc1 (stereo not given) | 2.98 µM | 3.28 µM | 2.84 | 3.06 µM | 5.45 | 3.7 | 4.32 | 3.87 | 3.07 |  | 1.48 | 1.7 µM | 1.5 µM |  | 1.92 µM | 1.83 µM | 1.71 µM | 1.62 µM | 1.64 | 1.67
26 | CC(C)C(=O)Nc1ccc(-c2nc(-c3cccc(OCCN4CCOCC4)c3)c(-c3ccnc(Br)c3)[nH]2)cc1 | 13.5 µM | > 100 µM | 7.01 | 3.57 µM |  | 18 | > 100 |  | 10 | 4 | 3.04 | 3.2 µM | 2.3 µM | 1.09 µM | 3.12 µM | 2.31 µM |  | 2.92 µM | 1.7 | 
27 | CC(C)(C)CNCCCNc1ccc(Cl)cc1 | > 100 µM | > 100 µM |  | 46.9 µM |  | > 100 | 25.6 | 0.172 | 68.2 | 55.4 |  |  |  |  |  |  |  |  |  | 
28 | COc1ccc(C2CC(c3ccc(NS(=O)(=O)c4cc([N+](=O)[O-])ccc4C)cc3)=NN2S(=O)(=O)c2cc([N+](=O)[O-])ccc2C)cc1 (stereo not given) | > 100 µM | > 100 µM | > 100 | > 100 µM | > 100 | 78.7 | > 100 | > 100 | > 100 | > 100 |  |  |  |  |  |  |  |  |  | 
